Source: US20210253598A1, “ARYL ANNULATED MACROCYCLIC INDOLE DERIVATIVES” (priority 2017, published 2021)
Where “and” joins values, the source holds several entries; their conditions need not be identical. Equal entries are not always repeated. Structures can show the parent of a compound that is named as a salt. Where two headings read alike, the source gives them in different places.

Experiments:
[1] = molecular target: MCL-1 (Homo sapiens, UniProt Q07820, K194A/K197A/R201A); experiment: Protein-protein interaction assay MCL-1/Noxa BH3 peptide, TR-FRET (MCL-1 assay, Assay 1); format: binding; details: MCL-1 Assay [M] (median), MBP-MCL-1 / Noxa BH3 peptide
Chain of MCL-1 (Q07820 173-321 K194A/K197A/R201A, looked up): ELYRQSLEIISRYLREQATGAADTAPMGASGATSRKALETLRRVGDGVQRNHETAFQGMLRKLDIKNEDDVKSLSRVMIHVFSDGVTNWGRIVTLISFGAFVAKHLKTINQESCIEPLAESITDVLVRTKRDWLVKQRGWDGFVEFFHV
Protocol: The dose-dependent inhibition by the compounds described in this invention of the interaction between MCL-1 and the BH3 domain of Noxa (both human) was determined using a steady state binding competition assay with time-resolved fluorescence energy transfer (TR-FRET) readout. For that purpose MCL-1 (amino acids 173-321, N-terminal fused to Maltose Binding Protein (MBP), SEQ ID 1) and a synthetic Noxa BH3-derived peptide of sequence Biotin-PEG2-PEG2-PAELEVE-Nva-[…]-amide (SEQ ID 2) served as protein receptor and tracer ligand respectively. The MBP-MCL-1 was purchased from Beryllium (Bedford, Mass., USA). The expression and purification of this protein construct has been described elsewhere (DOI:10.1371/journal.pone.0125010). The Noxa BH3-derived peptide can be obtained from e.g. Biosyntan (Berlin, Germany).
For that, 100-fold concentrated DMSO solutions were prepared by serial dilutions (1:3.4) of a 2 mM stock solution in a clear, 384-well microtiter plate (Greiner Bio-One, Frickenhausen, Germany). From there, 50 nl were transferred in a dark test plate (Greiner Bio-One, Frickenhausen, Germany). The assay was initiated by addition of 2 μl of a 2,5-fold concentrated MBP-MCL-1 solution (usually for a 1 nM end concentration in 5 μl reaction volume) in aqueous assay buffer [50 mM Tris/HCl pH 7, 100 mM sodium chloride (NaCl), 50 mM potassium fluoride (KF), 0.005% Tween-20, 2 mM DTT, 0.1% bovine gamma globulin (BGG)] to the compounds in the assay plate. This was followed by a 10-minute incubation step at 22° C. for pre-equilibration of the putative complex between MBP-MCL-1 and the compounds.
The mixture was incubated in the dark for one hour at 22° C. and then overnight at 4° C. The formation of MCL-1/Noxa complexes was determined by measuring the resonance energy transfer of the anti-MBP-Eu-cryptate antibody to the streptavidin-XL665 present in the reaction.
The resulting data (ratio) were normalized, taking 0% inhibition as the mean value of control measurements (usually 32 data points) where all reagents were included. In this case 50 nl DMSO were used instead of compounds. […] IC50 values were determined by regression analysis based on a 4 parameter equation (minimum, maximum, IC50, Hill; Y=Max+(Min−Max)/(1+(X/IC50)^Hill) using the Screener Software (Genedata).

[2] = test system: SUDHL5; experiment: Induction of caspase-3/7 activity in SUDHL5 cells (Assay 4); format: cell-based; details: SUDHL5, 3 hours treatment, Caspase-Glo 3/7, median, read-out: Caspase SUDHL5 [M] (median)
Protocol: (§1) Induction of Caspase-3/7 Activity Upon Treatment of Cells with Selected Compounds
(§2) The BH3-domain of MCL-1 sequesters pro-apoptotic proteins, thereby inhibiting apoptosis. In contrast, MCL-1 inhibitors are expected to antagonize this effect leading to an increase in apoptosis, which can be determined by measuring the activity of caspase-3/7.
(§3) The activity of caspase-3/7 was determined in DLBCL (Diffuse large B-cell lymphoma) cell lines (SUDHL5 and SUDHL10) upon treatment with different compounds, using the Caspase-Glo® 3/7 reagent from Promega (G8092).
(§4) As a control, medium without cells was also added to the plate. Cells were incubated in a humidified incubator at 37° C. overnight.
(§5) Rim wells were excluded. The cells were incubated for 3 hours in a humidified incubator at 37° C. After this incubation, 30 μl of Caspase-Glo® 3/7 reagent (Promega G8092) was added to each well using the Multidrop Combi Reagent Dispenser, followed by 1 hour incubation at 37° C. Finally, luminescence was read at 0.1 ms, with a gain of 3000 using the PHERAstar FS microplate reader (BMG Labtech).
(§6) For the evaluation of the results, the background measured with “medium-only” was subtracted from all other values. Then, the values were normalized to DMSO-only treated cells (every value was divided by the mean of the DMSO control).

[3] = test system: SUDHL10; experiment: Induction of caspase-3/7 activity in SUDHL10 cells (Assay 4); format: cell-based; details: SUDHL10, 3 hours treatment, Caspase-Glo 3/7, median, read-out: Caspase SUDHL10 [M] (median)
Protocol: as §1, §2, §3, §4, §5, §6

[4] = test system: SUDHL5; experiment: Induction of cytotoxicity in SUDHL5 cells, CellTiter-Glo (Assay 6); format: cell-based; details: SUDHL5, 5 hours incubation, median, read-out: Cytotox SUDHL5 [M] (median)
Protocol: (§7) Induction of Cytotoxicity Upon Treatment of Cells with Selected Compounds
(§8) In principle, compounds that induce apoptosis will concomitantly induce cell cytotoxicity. Therefore, cytotoxicity assays were run in parallel in SUDHL5 and SUDHL10 cells.
(§9) As a control, medium without cells was also added to the plate. Cells were incubated in a humidified incubator at 37° C. overnight. […] Rim wells were excluded. The cells were incubated for 5 hours in a humidified incubator at 37° C. After this incubation, 30 μl of CellTiter-Glo® Luminescent Cell Viability reagent (Promega, G7573) was added to each well using the Multidrop Combi Reagent Dispenser, followed by 15 minutes incubation on a shaker at room temperature. Finally, luminescence was read at 0.1 ms, with a gain of 3000 using the PHERAstar FS microplate reader (BMG Labtech).

[5] = test system: SUDHL10; experiment: Induction of cytotoxicity in SUDHL10 cells, CellTiter-Glo (Assay 6); format: cell-based; details: SUDHL10, 5 hours incubation, median, read-out: Cytotox SUDHL10 [M] (median)
Protocol: as §7, §8, §9

[6] = test system: SUDHL5; experiment: Anti-proliferative effect in SUDHL5 cells, CellTiter-Glo (Assay 7); format: cell-based; details: SUDHL5, 72 hours incubation, CellTiter-Glo, median, read-out: Antiproli SUDHL5 [M] (median)
Protocol: (§10) Assessment of the Anti-Proliferative Effect of Compounds in Different Cell Lines
(§11) The impact of compounds on the proliferation of different cell lines was assessed using the CellTiter-Glo® Luminescent Cell Viability reagent from Promega (G7573).
(§12) In parallel, cells were plated in a reference (day 0) plate for time zero determination. Cells were incubated in a humidified incubator at 37° C. overnight.
(§13) Rim wells were excluded. The cells were incubated for 72 hours in a humidified incubator at 37° C. The day 0 plate was measured by adding 30 μL/well of CTG solution (CellTiter-Glo® Luminescent Cell Viability reagent, Promega G7573) to time zero wells in the reference plate followed by a 10 minutes incubation and luminescence reading at 0.1 ms. using the PHERAstar FS microplate reader (BMG Labtech).
(§14) After 72 hours incubation, the treated plates were measured in the same way as the day 0 plate mentioned above. The Bella DRC Master Sheet was used to calculate IC50s, with CI=day 0 values and C0=DMSO control values.

[7] = test system: A2780; experiment: Anti-proliferative effect in A2780 cells, CellTiter-Glo (Assay 7); format: cell-based; details: A2780, 72 hours incubation, CellTiter-Glo, several values per example, read-out: Antiproli A2780
Protocol: as §10, §11, §12, §13, §14

Structure (SMILES): Cc1c2c(nn1C)COCc1ccccc1Cn1c(C(=O)O)c(CCCOc3cccc4ccccc34)c3cccc-2c31 (racemic) [Example 1, (rac)-4,5-Dimethyl-17-[3-(naphthalen-1-yloxy)propyl]-5,7,9,14-tetrahydroindolo[7,1-fg]pyrazolo[3,4-d][2,8]benzoxazacycloundecine-16-carboxylic Acid]
- IC50 [1]: 1.4e-08 M
- EC50 ([2]; Homo sapiens, SU-DHL-5, 3 h): 1e-05 M
- EC50 ([3]; Homo sapiens, SU-DHL10, 3 h): > 3.3e-05 M
- IC50 ([4]; Homo sapiens, SU-DHL-5, 5 h): 1.1e-05 M
- IC50 ([5]; Homo sapiens, SU-DHL10, 5 h): > 1.6e-05 M
- IC50 ([6]; Homo sapiens, SU-DHL-5, 72 h): 9e-06 M

Structure (SMILES): Cc1c2c(nn1C)COCc1cccnc1Cn1c(C(=O)O)c(CCCOc3cccc4ccccc34)c3cccc-2c31 (racemic) [Example 4, (rac)-4,5-Dimethyl-17-[3-(naphthalen-1-yloxy)propyl]-5,7,9,14-tetrahydropyrazolo-[4′,3′:9,10]pyrido[3′,2′:3,4][1,6]oxazacycloundecino[8,7,6-hi]indole-16-carboxylic Acid]
- IC50 [1]: 5.3e-09 M
- EC50 ([2]; Homo sapiens, SU-DHL-5, 3 h): 1.5e-05 M
- EC50 ([3]; Homo sapiens, SU-DHL10, 3 h): > 3.2e-05 M
- IC50 ([4]; Homo sapiens, SU-DHL-5, 5 h): 1.2e-05 M
- IC50 ([5]; Homo sapiens, SU-DHL10, 5 h): > 2.3e-05 M
- IC50 ([6]; Homo sapiens, SU-DHL-5, 72 h): 1.4e-05 M

Structure (SMILES): Cc1c2c(nn1C)COCc1ncccc1Cn1c(C(=O)O)c(CCCOc3cccc4ccccc34)c3cccc-2c31 (racemic) [Example 7, (rac)-4,5-Dimethyl-17-[3-(naphthalen-1-yloxy)propyl]-5,7,9,14-tetrahydropyrazolo[4′,3′:9,10]-pyrido[2′,3′:3,4][1,6]oxazacycloundecino[8,7,6-hi]indole-16-carboxylic Acid]
- EC50 ([2]; Homo sapiens, SU-DHL-5, 3 h): 3e-06 M
- EC50 ([3]; Homo sapiens, SU-DHL10, 3 h): 1.6e-05 M
- IC50 ([4]; Homo sapiens, SU-DHL-5, 5 h): 3.6e-06 M
- IC50 ([5]; Homo sapiens, SU-DHL10, 5 h): 1.5e-05 M
- IC50 ([6]; Homo sapiens, SU-DHL-5, 72 h): 4.6e-06 M

Structure (SMILES): Cc1c2c(nn1C)CN(S(=O)(=O)c1ccc(N3CCOCC3)nc1)Cc1ccccc1Cn1c(C(=O)O)c(CCCOc3cccc4ccccc34)c3cccc-2c31 (racemic) [Example 17, (rac)-4,5-Dimethyl-8-{[6-(morpholin-4-yl)pyridin-3-yl]sulfonyl}-17-[3-(naphthalen-1-yloxy)propyl]-7,8,9,14-tetrahydro-5H-indolo[1,7-bc]pyrazolo[4,3-e][2,8]benzodiazacycloundecine-16-carboxylic Acid Acetate Salt]
- IC50 [1]: 3.4e-08 M
- EC50 ([2]; Homo sapiens, SU-DHL-5, 3 h): 3e-06 M
- EC50 ([3]; Homo sapiens, SU-DHL10, 3 h): 8.5e-06 M
- IC50 ([4]; Homo sapiens, SU-DHL-5, 5 h): 3.1e-06 M
- IC50 ([5]; Homo sapiens, SU-DHL10, 5 h): 1.4e-05 M
- IC50 ([6]; Homo sapiens, SU-DHL-5, 72 h): 3.9e-06 M
- IC50 ([7]; Acetate Salt): 5.77 µM
- IC50 ([7]; Homo sapiens, A2780, 72 h): 4.91 µM

Structure (SMILES): Cc1c2c(nn1C)COCc1cccnc1Cn1c(C(=O)O)c(CCCOc3cccc4ccccc34)c3cccc-2c31 (single isomer, unassigned; enantiomer 1) [Example 5, 4,5-Dimethyl-17-[3-(naphthalen-1-yloxy)propyl]-5,7,9,14-tetrahydropyrazolo[4′,3′:9,10]-pyrido[3′,2′:3,4][1,6]oxazacycloundecino[8,7,6-hi]indole-16-carboxylic Acid (Enantiomer 1)]
- IC50 [1]: 2.9e-09 M
- EC50 [2]: 5.4e-06 M
- EC50 [3]: 1.4e-05 M
- IC50 [4]: 4.6e-06 M
- IC50 [5]: 1.3e-05 M
- IC50 [6]: 5.2e-06 M

Structure (SMILES): Cc1c2c(nn1C)COCc1cccnc1Cn1c(C(=O)O)c(CCCOc3cccc4ccccc34)c3cccc-2c31 (single isomer, unassigned; enantiomer 2) [Example 6, 4,5-Dimethyl-17-[3-(naphthalen-1-yloxy)propyl]-5,7,9,14-tetrahydropyrazolo[4′,3′:9,10]-pyrido[3′,2′:3,4][1,6]oxazacycloundecino[8,7,6-hi]indole-16-carboxylic Acid (Enantiomer 2)]
- IC50 [1]: 1.1e-08 M
- EC50 [2]: > 2.2e-05 M
- EC50 [3]: > 3.3e-05 M
- IC50 [4]: > 1.9e-05 M
- IC50 [5]: > 3.3e-05 M
- IC50 [6]: 1.2e-05 M

Structure (SMILES): Cc1c2c(nn1C)COCc1ncccc1Cn1c(C(=O)O)c(CCCOc3cccc4ccccc34)c3cccc-2c31 (single isomer, unassigned; enantiomer 2) [Example 9, 4,5-Dimethyl-17-[3-(naphthalen-1-yloxy)propyl]-5,7,9,14-tetrahydropyrazolo[4′,3′:9,10]-pyrido[2′,3′:3,4][1,6]oxazacycloundecino[8,7,6-hi]indole-16-carboxylic acid-N-ethylethanamine Salt (Enantiomer 2)]
- IC50 [1]: 3.2e-08 M
- EC50 [2]: > 3.3e-05 M
- EC50 [3]: > 3.3e-05 M
- IC50 [4]: > 3.3e-05 M
- IC50 [5]: > 3.3e-05 M
- IC50 [6]: 2e-05 M

Structure (SMILES): Cc1c2c(nn1C)COCc1ccccc1Cn1c(C(=O)O)c(CCCOc3cccc4ccccc34)c3ccc(Cl)c-2c31 (single isomer, unassigned; enantiomer 2) [Example 38, (+)-3-Chloro-4,5-dimethyl-17-[3-(naphthalen-1-yloxy)propyl]-5,7,9,14-tetrahydroindolo[7,1-fg]pyrazolo[3,4-d][2,8]benzoxazacycloundecine-16-carboxylic Acid (Enantiomer 2)]
- IC50 [1]: 7.1e-09 M
- EC50 [2]: 1.7e-06 M
- EC50 [3]: 1.1e-05 M
- IC50 [4]: 2.3e-06 M
- IC50 [5]: 6.8e-06 M

Structure (SMILES): Cc1c2c(nn1C)COCc1cccnc1Cn1c(C(=O)O)c(CCCOc3cccc4ccccc34)c3cccc-2c31 [Example 04]
- IC50 [7]: 31.1 µM and > 33 µM
